{
  "source": "patent US20030022926A1",
  "about": "“Method for treating neuropathic pain and pharmaceutical preparation therefor” (priority 2001, published 2003)",
  "key": {"[1]": {"description": "(§1) The rats were anesthetized with 4% halothane inhaled concentration in 100% oxygen by face mask. An unilateral percutaneous sciatic nerve block was then performed on the right ligated side. A 25-gauge needle was introduced between the greater trochanter and the ischial tuberosity, both landmarks previously localized by palpation, according to the technique reported by Thalhammer (Thalhammer JG, et al Neurologic evaluation of the rat during sciatic nerve block with lidocaine. Anesthesiology. 1995 Apr;82(4):1013-25). Different mixtures of saline and alpha-2-adrenergic agonist were then injected in a total volume of 0.3 ml."}, "[2]": {"tested_on": "phosphorylated cAMP response element binding protein (pCREB)", "procedure": "The L4-5 spinal cord segments and the ipsilateral and contralateral sciatic nerve segments at both proximal and mid-thigh levels were removed and postfixed in the same fixative for 3-6 hours. Then all tissues were transferred to 30% sucrose in 0.1 M PB at 40° C. for cryoprotection. The spinal cord segments were cut on a cryostat at a 40 μm thickness. The free-floating sections were collected in PBS. After being pre-treated with 0.3% H 202 and 10% normal goat serum (NGS, Vector Laboratories, Burlingame, Calif.), sections were incubated for 36 hours at 40° C. in a rabbit polyclonal anti-phospho-CREB antibody (1:1,000, New England Biolabs, Beverly, Mass., U.S.A.) diluted in phosphate buffered saline containing 0.3% Triton-×100 (PBS+T) and 3% NGS. Subsequently, the sections were incubated in biotinylated goat anti-rabbit IgG (Vector) and further processed using Elite Vectastain ABC kit (Vector) according to the instructions of the manufacturer. Between each incubation, sections were washed in PBS+T (15 min twice). Finally, the immunoprecipitates were developed by 3,-3′ diaminobenzedine (DAB) and the chromogen was enhanced by the glucose oxidase-nickel-3,-3′ DAB method.\nImages of both ipsilateral and contralateral dorsal horns of nerve injured rats or from the dorsal horn of normal rats were captured at ×250 magnification using a CCD camera. In a given area (235 μm×235 μm), which covered the entire LI to LII in depth and was located in the middle one third of the mediolateral extent of the dorsal horn, the number of pixels occupied by pCREB-IR cells on each side was measured automatically using image analysis software (SigmaScan, Jandel Scientific Inc., San Rafael, Calif., U.S.A.). Values are expressed as mean+SEM. Groups were compared using two-way ANOVA followed by Dunnett's or Fishers LSD test. To compare the mean number of the pixels occupied by pCREB-IR cells between two-side dorsal horn, a paired t-test or one-way ANOVA with Student-Newman-Keuls multiple comparison method was used. P<0.05 was considered significant."}, "[3]": {"tested_on": "thermal hyperalgesia in rats with partial ligation of sciatic nerve", "details": "ligated side", "from_the_text": "(§2) After Institutional Animal Care Committee approval, adult male Wistar rats (Hanovre, weight 150 -180 g) underwent partial sciatic nerve ligation of the right sciatic nerve as described by Seltzer et al (Seltzer 1990). Briefly, under halothane anesthesia, the right sciatic nerve was exposed at high-thigh level and liberated from surrounding tissues. One third to one half of the nerve was then tightly ligated with silicon-treated silk suture (Prolene 7-0) before those muscle and skin layers were closed. The animals were allowed to recover for four to six weeks, lag of time sufficient to develop neuropathic pain features.\n(§3) Only the animals which had developed satisfactory Mechanical Allodynia and Thermal Hyperalgesia were used to assess the efficacy of peripheral nerve blockade.\nThe rats were anesthetized with 4% halothane inhaled concentration in 100% oxygen by face mask. An unilateral percutaneous sciatic nerve block was then performed on the right ligated side. A 25-gauge needle was introduced between the greater trochanter and the ischial tuberosity, both landmarks previously localized by palpation, according to the technique reported by Thalhammer (Thalhammer JG, et al Neurologic evaluation of the rat during sciatic nerve block with lidocaine. Anesthesiology. 1995 Apr;82(4):1013-25). […]\nValues are expressed as mean±SD."}, "[4]": {"tested_on": "mechanical allodynia in rats with partial ligation of sciatic nerve", "from_the_text": "A validated animal model of neuropathic pain was used that results from a partial ligation of one sciatic nerve in rat (Seltzer 1990). Nerve ligation and subsequent edema represents an experimental model for mechanisms operative in both nociceptive nerve pain and pain due to partial deafferentation (Asbury A, Fields H. Pain due to peripheral nerve damage: an hypothesis. Neurology 1984; 34: 1587-1590). This model thereby closely mimics the clinical situation found in several cancerous patients.\nas §2\nMechanical allodynia was assessed by application of calibrated Von Frey filaments (Stoelting, Wood Dale, Ill.), ranging from 1.2 g to 28.8 g.\nThe animals were placed on a plastic mesh floor into individual boxes. After accommodation to the environment, the Von Frey filaments were applied vertically to the plantar surface of the ligated hind paw and gently bent 3-4 times over approximately 2 sec. if no response was elicited, a larger filament was applied in the same manner. The filaments were applied in increasing order until a brisk withdrawal or paw flinching occurred, that was considered as a positive response. The filament applications were repeated three times, with five to ten minutes interval between testing. The withdrawal threshold was determined as the mean of the three values.\nas §3, §1\nA single sciatic block (SB) injection of the following drugs was realized: Saline (n=6), Saline and intramuscular (IM) clonidine 30 μg (n=11), Clonidine 15 μg (n=8), Clonidine 3 μg (n=9). The drug used in the study for peripheral nerve block was: clonidine marketed for clinical use (Catapressan®, Boehringer Ingelheim). The drug was diluted in isotonic saline.\nThe animals were tested as previously described for both Mechanical Allodynia and Thermal Hyperalgesia at day0 (5 hours after sciatic nerve injection), day 1, day 3, day 7, day 10, day 14 and day 21 post drug injection.\nFor Mechanical Allodynia, Paw withdrawal threshold (PWT) values were converted to percent of maximum possible effect (% MPE), according to the formula:\n% MPE=(post-drug infiltration threshold−baseline post-ligation threshold)/(pre-ligation threshold−baseline post-ligation threshold)×100\nValues are expressed as mean±SD. The percent maximum possible effect data were used to calculate the respective ED50 values of clonidine and clonidine combinations using linear regression."}, "[5]": {"tested_on": "neuropathic pain", "from_the_text": "The patient was then referred to the Pain Clinic to benefit from neuraxial analgesia (either epidural or intrathecal catheter placement). However, long-term spinal catheter is not devoid of side effects, both related to the technique, especially the risk of infection and to the drugs used."}, "[6]": {"details": "ipsilateral and contralateral, compared to saline controls (p<0.001)"}, "[7]": {"details": "one week after single peripheral nerve injection at the injury site, 30 mg as printed"}},
  "note": "Where two headings read alike, the source gives them in different places.",
  "data": [
    {"smiles": "Clc1cccc(Cl)c1NC1=NCCN1", "note": "[clonidine, N-(2,6-dichlorophenyl)-4,5-dihydro-1H-imidazol-2-amine]", "values": [
      {"measurement": "sedation", "setting": "[1]; after clonidine injection in rats", "value": "mild transitory sedation"},
      {"measurement": "motor blockade or motor deficit", "setting": "[1]; peripheral sciatic nerve block in rats", "value": "did not result into motor blockade or subsequent motor deficit"},
      {"measurement": "mean number of pixels in a fixed area occupied by pCREB-IR cells in the dorsal horn", "setting": "[2]; [6]", "value": "significantly reduced"},
      {"measurement": "mean optical density in a fixed area occupied by pCREB-IR cells in the dorsal horn", "setting": "[2]; [6]", "value": "significantly reduced"},
      {"measurement": "increase in pCREB-IR cells in the ipsilateral dorsal horn", "setting": "[2]; [7]", "value": "dramatically suppressed"},
      {"measurement": "number of pCREB-IR cells in the contralateral dorsal horn", "setting": "[2]; [7]", "value": "markedly reduced"},
      {"measurement": "effect of peripheral nerve block on thermal hyperalgesia (in words)", "setting": "[3]", "value": "alleviated the thermal hyperalgesia in a dose-related manner"},
      {"measurement": "PWT values (Paw Withdrawal threshold)", "setting": "[4]; intramuscular (IM) clonidine 30 μg, D0 (5 h)", "value": "2.6 ± 1.8", "unit": "g"},
      {"measurement": "PWT values (Paw Withdrawal threshold)", "setting": "[4]; intramuscular (IM) clonidine 30 μg, D1", "value": "7.9 ± 4.2", "unit": "g"},
      {"measurement": "PWT values (Paw Withdrawal threshold)", "setting": "[4]; intramuscular (IM) clonidine 30 μg, D3", "value": "4.3 ± 2.8", "unit": "g"},
      {"measurement": "PWT values (Paw Withdrawal threshold)", "setting": "[4]; intramuscular (IM) clonidine 30 μg, D7", "value": "5.2 ± 2.8", "unit": "g"},
      {"measurement": "PWT values (Paw Withdrawal threshold)", "setting": "[4]; intramuscular (IM) clonidine 30 μg, D10", "value": "3.6 ± 2.3", "unit": "g"},
      {"measurement": "PWT values (Paw Withdrawal threshold)", "setting": "[4]; intramuscular (IM) clonidine 30 μg, D14", "value": "2.0 ± 3.3", "unit": "g"},
      {"measurement": "PWT values (Paw Withdrawal threshold)", "setting": "[4]; intramuscular (IM) clonidine 30 μg, D21", "value": "3.6 ± 1.4", "unit": "g"},
      {"measurement": "peak effect on mechanical allodynia, day post injection", "setting": "[4]; peripheral sciatic block 3 to 30 μg, four to six weeks after nerve injury", "value": 7, "unit": "days"},
      {"measurement": "Maximal effect in alleviating Mechanical Allodynia", "setting": "[4]; sciatic block 3 μg, at D1", "value": "34.2±5.1", "unit": "% MPE"},
      {"measurement": "Maximal effect in alleviating Mechanical Allodynia", "setting": "[4]; sciatic block 15 μg, at D3", "value": "40.5±6.4", "unit": "% MPE"},
      {"measurement": "Maximal effect in alleviating Mechanical Allodynia", "setting": "[4]; sciatic block 30 μg, at D7", "value": "76.6±9.2", "unit": "% MPE"},
      {"measurement": "PWT values (Paw Withdrawal threshold)", "setting": "[4]; sciatic block (SB) 3 μg, D0 (5 h)", "value": "4.7 ± 4", "unit": "g"},
      {"measurement": "PWT values (Paw Withdrawal threshold)", "setting": "[4]; sciatic block (SB) 3 μg, D1", "value": "12.0 ± 4", "unit": "g"},
      {"measurement": "PWT values (Paw Withdrawal threshold)", "setting": "[4]; sciatic block (SB) 3 μg, D3", "value": "10.3 ± 5", "unit": "g"},
      {"measurement": "PWT values (Paw Withdrawal threshold)", "setting": "[4]; sciatic block (SB) 3 μg, D7", "value": "8.2 ± 4", "unit": "g"},
      {"measurement": "PWT values (Paw Withdrawal threshold)", "setting": "[4]; sciatic block (SB) 3 μg, D10", "value": "7.0 ± 3", "unit": "g"},
      {"measurement": "PWT values (Paw Withdrawal threshold)", "setting": "[4]; sciatic block (SB) 3 μg, D14", "value": "5.0 ± 2", "unit": "g"},
      {"measurement": "PWT values (Paw Withdrawal threshold)", "setting": "[4]; sciatic block (SB) 3 μg, D21", "value": "4.3 ± 1", "unit": "g"},
      {"measurement": "PWT values (Paw Withdrawal threshold)", "setting": "[4]; sciatic block (SB) 15 μg, D0 (5 h)", "value": "4.8 ± 2", "unit": "g"},
      {"measurement": "PWT values (Paw Withdrawal threshold)", "setting": "[4]; sciatic block (SB) 15 μg, D1", "value": "12.6 ± 6", "unit": "g"},
      {"measurement": "PWT values (Paw Withdrawal threshold)", "setting": "[4]; sciatic block (SB) 15 μg, D3", "value": "12.9 ± 5", "unit": "g"},
      {"measurement": "PWT values (Paw Withdrawal threshold)", "setting": "[4]; sciatic block (SB) 15 μg, D7", "value": "8.8 ± 3", "unit": "g"},
      {"measurement": "PWT values (Paw Withdrawal threshold)", "setting": "[4]; sciatic block (SB) 15 μg, D10", "value": "9.7 ± 4", "unit": "g"},
      {"measurement": "PWT values (Paw Withdrawal threshold)", "setting": "[4]; sciatic block (SB) 15 μg, D14", "value": "6.4 ± 3", "unit": "g"},
      {"measurement": "PWT values (Paw Withdrawal threshold)", "setting": "[4]; sciatic block (SB) 15 μg, D21", "value": "3.7 ± 1", "unit": "g"},
      {"measurement": "PWT values (Paw Withdrawal threshold)", "setting": "[4]; sciatic block (SB) 30 μg, D0 (5 h)", "value": "9.3 ± 6", "unit": "g"},
      {"measurement": "PWT values (Paw Withdrawal threshold)", "setting": "[4]; sciatic block (SB) 30 μg, D1", "value": "14.7 ± 10", "unit": "g"},
      {"measurement": "PWT values (Paw Withdrawal threshold)", "setting": "[4]; sciatic block (SB) 30 μg, D3", "value": "23.7 ± 11", "unit": "g"},
      {"measurement": "PWT values (Paw Withdrawal threshold)", "setting": "[4]; sciatic block (SB) 30 μg, D7", "value": "23.0 ± 7", "unit": "g"},
      {"measurement": "PWT values (Paw Withdrawal threshold)", "setting": "[4]; sciatic block (SB) 30 μg, D10", "value": "11.9 ± 3", "unit": "g"},
      {"measurement": "PWT values (Paw Withdrawal threshold)", "setting": "[4]; sciatic block (SB) 30 μg, D14", "value": "11.4 ± 4", "unit": "g"},
      {"measurement": "PWT values (Paw Withdrawal threshold)", "setting": "[4]; sciatic block (SB) 30 μg, D21", "value": "7.8 ± 3", "unit": "g"},
      {"measurement": "effect of single peripheral sciatic block on mechanical allodynia (in words)", "setting": "[4]; single sciatic block, neuropathic rats", "value": "significantly alleviated mechanical allodynia"},
      {"measurement": "maximal antiallodynic effect", "setting": "[4]; systemic injection (IM) 30 μg, at day 0 (5 hours post-sciatic blockade)", "value": "20.7±5.7", "unit": "% MPE"},
      {"measurement": "duration of strong alleviation of neuropathic pain after a single femoral block injection", "setting": "[5]; clonidine alone", "value": "more than ten"},
      {"measurement": "onset of the antihyperalgesic effect", "setting": "[5]; clonidine alone, femoral block", "value": "four to five"},
      {"measurement": "efficacy of clonidine alone versus initial mixture", "setting": "[5]; femoral block, local anesthetic and steroid withdrawn", "value": "as effective as previous combination"},
      {"measurement": "tolerance on repetitive blocks", "setting": "[5]; repetitive peripheral nerve blocks in the cancerous patient", "value": "without apparition of tolerance"}
    ]}
  ]
}
